Consider one compound from patent US11607422B2, “Uttroside B and derivatives thereof as therapeutics for hepatocellular carcinoma” (Rajiv Gandhi Centre for Biotechnology, an Autonomous …, priority 2016, dated 2023).

One data set concerns HepG2 cells. Put plainly: Cell cycle analysis by flow cytometry (propidium iodide). In kind it is cell-based, human. The conditions noted are these: HepG2, 48 h, all concentrations studied. How it is done: FIGS. 3A-3F show Uttroside B induces caspase-dependent apoptosis leading to PARP cleavage in HepG2 cells while being independent of cell cycle. FIGS. 3A-3E are images of Western blots showing caspase activation in HepG2 cells. Whole-cell extracts were prepared after treating HepG2 cells with indicated concentrations of Uttroside B for 48 h, the whole cell lysate was resolved on a 15% gel and subjected to western blotting using antibodies against the caspases 8, 9 & 7 detected by ECL. HepG2 cells were treated with Uttroside B for 48 h at different concentrations and the whole cell lysate was resolved on a 10% gel, immunoblotted against anti-PARP and detected by ECL. […] HepG2 cells were treated with Uttroside B for 48 h, stained with propidium iodide and the cell cycle analysis was done using fluorescence activated cell sorter. Curcumin 25 μM (24 h) is used as positive control.
Flow cytometry: Cell cycle analysis helps in distinguishing the distribution of a population of cells to the different stages of the cycle. Cell cycle analysis using flow cytometry was performed to investigate the cell cycle arrest induced by Uttroside B. Cell cycle analysis is performed by quantitative measurement of nuclear DNA content in a cell by staining DNA with propidium iodide. […]

In another data set the test system is A549. Put plainly: MTT cell viability assay in A549 cells. The data set is classed as cell-based. The settings on record: 72 h. How it is done: (§1) FIG. 2A is a graph comparison of IC50 of Uttroside B in a panel of cancer cells of different origin. The cancer cell lines HeLa, A375, HepG2, MDA-MB-231, HL 60, A549 and HCT116 were treated with Uttroside B as indicated, incubated for 72 h and the cell viability was assessed by MTT assay. FIG. 2B is a graph showing dose dependent effect of Uttroside B in the liver cancer cell lines and in normal immortalized hepatocytes. The liver cancer cell lines HepG2, Hep3B, SKHEP-1, Huh-7 and normal hepatocytes (Chang liver), were treated with Uttroside B incubated for 72 h and the cell viability was assessed by MTT assay. FIG. 2C is a graph comparison of IC50 of Uttroside B with sorafenib. HepG2 cells were treated with Uttroside B as indicated, incubated for 72 h, and the cell viability was assessed by MTT assay. […] The clones developed were counted and plotted as a graph. Colony containing more than four cells was counted as one clone. […]
(§2) MTT [3-(4,5-dimethylthiazole-2-yl)-2,5-diphenyltetrazolium bromide] assay is a standard colorimetric assay, suitable for analyzing proliferation, viability, and cytotoxicity. […] After overnight incubation, cells were treated with different concentrations of organic extracts (25-250 μg/ml) of S. nigrum and the isolated compound Uttroside B (250-1250 nM) for 72 h and cytotoxicity was measured. […]
For orientation: Tetrazolium dyes change colour on reduction, which living cells bring about.

The test system of a further data set is HL60. Put plainly: MTT cell viability assay in HL60 cells. In kind it is cell-based. The settings on record: 72 h. How it is done:
as §1, §2

A further data set concerns AP-1 in HepG2 cells. Put plainly: Electrophoretic mobility shift assay of AP-1. The data set is classed as cell-based, human. The settings on record: HepG2, EMSA. How it is done:
Stocks of crude extracts and isolated compound of S. nigrum was prepared in DMSO for the in vitro studies and stored at −20° C. The DMSO concentration in all studies, including controls, was ≤0.2%. Cell viability assay was performed after 72 h of drug treatment while whole cell lysate preparation and cell cycle analysis were done after 24 h and 48 h of drug treatment. For studying NF-κB and AP-1, Uttroside B was incubated for 2 h before extraction.
Radiolabeling of oligonucleotide probes for electrophoretic mobility shift assay:HepG2 Cells were treated with Uttroside B for two hours, scraped and suspended in 150 μL of lysis buffer (10 mM HEPES(pH 7.9), 10 mM KCl, 0.1 mM EDTA, 0.1 mM EGTA, 1 mM DTT, 0.5 mMphenylmethylsulfonyl fluoride, 2 μg/mL leupeptin, 2 μg/mL aprotinin, 0.5 mg/ml benzamidine) for 30 min, after which 4.5 μl of 10% Nonidet P-40 was added. […]

A further data set has as its system PC-12. The conditions noted are these: literature ref 13; read-out: IC50, cytotoxicity against PC-12; cited from earlier work.

Consider `C[C@H](CC[C@@]1(O)O[C@H]2C[C@H]3[C@@H]4CC[C@H]5C[C@@H](O[C@@H]6O[C@H](CO)[C@H](O[C@@H]7O[C@H](CO)[C@@H](O)[C@H](O[C@@H]8OC[C@@H](O)[C@H](O)[C@H]8O)[C@H]7O[C@@H]7O[C@H](CO)[C@@H](O)[C@H](O)[C@H]7O)[C@H](O)[C@H]6O)CC[C@]5(C)[C@H]4CC[C@]3(C)[C@H]2[C@@H]1C)CO[C@@H]1O[C@H](CO)[C@@H](O)[C@H](O)[C@H]1O` [Uttroside B], for which, in the data set with HepG2 cells, the “effect on cell cycle” value is on record as “did not show any significant effect on cell cycle”. In addition, the results for the IC50 in the data set on A549, with HL60 and in the data set on PC-12 were 1000 nM, 2500 nM and 1200 nM, respectively. The “AP-1 (downstream target of MAPK signaling)” value in the data set with AP-1 in HepG2 cells was “down-regulated”.

The IC50 is the concentration at which inhibition is half-maximal.
